Laboratory results taken from patent US20210388260A1, “USE OF A SUBSTITUTED OR UNSUBSTITUTED POLYCYCLIC AROMATIC HYDROCARBON COMPOUND FOR HIGH-RESOLUTION MICROSCOPY” (Max-Planck-Gesellschaft zur Förderung der Wissenschaften e.V, priority 2018, published 2021).
≈ marks a conversion by molar mass, not a printed value.

Key:
Solubility in water = type: physicochemical; settings: room temperature
Description: In accordance with the present invention, the solubility and particularly the solubility of the compound having the general formula (1) or the general formula (2) in water at 23° C. is measured as follows: 1 mg sample is weighed into an Erlenmeyer flask and is then mixed homogeneously with 4 ml of water with a spatula at 23° C. The remaining substance on the spatula is stripped off with a magnetic stirrer bar, which is then added to the Erlenmeyer flask. While stirring with a magnetic stirrer, water is added dropwise with a burette until the solution in the Erlenmeyer flask becomes clear at 23° C. After that, the solubility of compound in water is calculated by calculating the ratio of weighed compound divided by the volume of added water and then by recalculating this ratio to 1 l of water.

living cells [1] = assay: Cytotoxicity test in living cells (Example 13, FIG. 8); type: cell-based; settings: concentration of 1 μM
Description: (§1) More specifically, the cytotoxicity of DBOV-Mes-OTEG was tested in living cells. […] Moreover, the uptake of DBOV-Mes-OTEG into living cells was investigated by imaging 21 hours with low laser intensity at the spinning disk confocal microscopy (Visitron).

living cells [2] = assay: Uptake into living cells, spinning disk confocal microscopy; type: cell-based
Description: as §1

fixed cells = assay: Blinking-mode imaging of fixed cell samples in PBS without special imaging buffer; type: cell-based
Source text: After the aforementioned live cell imaging, the samples were fixed and imaged in phosphate-buffered saline (PBS) without special imaging buffer.

[3] = Absorption and emission spectra, molar extinction coefficient, fluorescence quantum yield; type: physicochemical; settings: for fluorescence quantum yield / maximum absorption wavelength / molar extinction coefficient ε: in toluene (10^−5 mol/L); for molar extinction coefficient ε: at maximum absorption wavelength; for width of absorption and emission spectra: spectra of FIGS. 3a-d, 4a-d
Source text: The maximum absorption wavelength in toluene (10^−5 mol/L) was 611 nm (molar extinction coefficient ε=2.03×10^5 M^−1 cm^−1) with a high fluorescence quantum yield of 0.85.
The maximum absorption wavelength in toluene (10^−5 mol/L) was 609 nm (molar extinction coefficient c=2.83×10^5 M^−1 cm^−1) with a high fluorescence quantum yield of 0.85.
The maximum absorption wavelength in toluene (10^−5 mol/L) was 647 nm (molar extinction coefficient ε=61511 M^−1 cm^−1) with a fluorescence quantum yield of 0.67.
The maximum absorption wavelength in toluene (10^−5 mol/L) was 609 nm (molar extinction coefficient ε=3.85×10^5 M^−1 cm^−1) with a high fluorescence quantum yield of 0.89.

[4] = STED imaging, stability embedded in polystyrene and in air (Example 12); type: physicochemical; settings: high STED beam power, 3D STED imaging of more than one hour
Description: Different measurements were performed with 6,14-dimesityldibenzo[hi,st]ovalene being embedded in a polystyrene matrix and with 6,14-dimesityldibenzo[hi,st]ovalene in air. A Leica SP8 microscopy was used for the microscopy with an excitation laser wavelength of 561 nm and depletion (STED) laser wavelength of 775 nm.
The prepared glass coverslips were taped to a slide and kept in dark at room temperature until use.
A 15-months old sample of 6,14-dimesityldibenzo[hi,st]ovalene embedded in polystyrene as well as a freshly prepared sample of 6,14-dimesityldibenzo[hi,st]ovalene embedded in polystyrene were analyzed by STED.
6,14-dimesityldibenzo[hi,st]ovalene powder was dispersed in toluene at room temperature to a concentration of 10^−5 mol/L and was then further diluted to the needed concentration of e.g. 10^−7 mol/L. A gridded glass coverslip (#1.5) purchased from Ibidi GmbH in Martinsried, Germany which have microscopic/nano-structures was cleaned by oxygen-plasma cleaner (250 W, 5 minutes). 8 μl 10^−7 mol/L solution were put on top of the micro/nano-structure sample. After a few minutes, when all of the toluene was volatilized completely, the prepared sample was put on the microscope for 3D STED imaging.
The STED was performed with the following microscopy settings of the Leica SP8 microscope: […]

[5] = Toxicity evaluation (Example 9)
Description: (§2) 3,4,5-Tris(hexaethylene glycol) substituted 6,14-dimesityldibenzo[hi,st]ovalene was prepared analogous to example 4 and evaluated concerning its toxicity.

[6] = type: physicochemical
Description: as §2

| Molecule | fluorescence quantum yield [3] | maximum absorption wavelength [3] [nm] | molar extinction coefficient ε [3] [M⁻¹ cm⁻¹] | width of absorption and emission spectra [3] | also measured |
| --- | --- | --- | --- | --- | --- |
| COCCOCCOCCOCCOc1cc(-c2ccc3cc4cc5c(-c6c(C)cc(C)cc6C)cc6cc7c(-c8cc(OCCOCCOCCOCCOC)c(OCCOCCOCCOCCOC)c(OCCOCCOCCOCCOC)c8)ccc8cc9cc%10c(-c%11c(C)cc(C)cc%11C)cc%11cc2c3c2c%11c%10c3c9c(c87)c6c5c3c42)cc(OCCOCCOCCOCCOC)c1OCCOCCOCCOCCOC [Example 4, 3,11-bis(3,4,5-tris(2,5,8,11-tetraoxatridecan-13-yloxy)phenyl)-6,14-dimesityldibenzo[hi,st]ovalene] | – | – | – | – | solubility in water (Solubility in water): 100 µg/mL (≈ 47.7 µM); toxicity to cells (living cells [1]): does not show any significant toxicity; location of compound in living cells (living cells [2]; after 21 hours incubation): in the nucleus and nuclear membrane; location of compound in living cells (living cells [2]; at the beginning of the incubation): taken into the cytoplasm; decrease of blinking signals (fixed cells; continuous exposure, high laser intensity 10 kW/cm^2 for 90 min): no significant decrease; blinking signals at low laser intensity (fixed cells; low laser intensity of 240 W/cm^2): blinking signals could also be imaged |
| CCCCCCCCCCCCc1c2cccc3c4ccc5ccc6c(CCCCCCCCCCCC)c7cccc8c9ccc%10ccc1c1c%10c9c9c(c78)c6c5c4c9c1c23 [Example 1, 6,14-didodecyldibenzo[hi,st]ovalene] | 0.85 | 611 | 203000 | – | melting point: > 400 °C |
| CCCCCCCCCCCCOc1cc(-c2c3cccc4c5ccc6ccc7c(-c8cc(OCCCCCCCCCCCC)c(OCCCCCCCCCCCC)c(OCCCCCCCCCCCC)c8)c8cccc9c%10ccc%11ccc2c2c%11c%10c%10c(c89)c7c6c5c%10c2c34)cc(OCCCCCCCCCCCC)c1OCCCCCCCCCCCC [Example 6, 6,14-bis[3,4,5-tris(dodecoxyl)-phenyl]dibenzo[hi,st]ovalene] | 0.89 | 609 | 385000 | – | – |
| CCCCCCn1c(=O)c2c3ccc4c(-c5c(C)cc(C)cc5C)c5ccc6cc7c8c(=O)n(CCCCCC)c(=O)c8c8ccc9c(-c%10c(C)cc(C)cc%10C)c%10ccc%11cc(c2c1=O)c1c3c4c2c5c6c3c7c8c9c4c%10c%11c1c2c43 [Example 8, N-hexyl fumaric acid imide group substituted 6,14-dimesityldibenzo[hi,st]ovalene] | – | – | – | narrow absorption spectrum as well as a narrow emission spectrum | – |
| CC(C)[Si](C#Cc1c2cccc3c4ccc5ccc6c(C#C[Si](C(C)C)(C(C)C)C(C)C)c7cccc8c9ccc%10ccc1c1c%10c9c9c(c78)c6c5c4c9c1c23)(C(C)C)C(C)C [Example 5, 6,14-di(triisopropylsilylethynyl) dibenzo[hi,st]ovalene] | 0.67 | 647 | 61511 | narrow absorption spectrum as well as a narrow emission spectrum | – |
| Cc1cccc(C)c1-c1c2cccc3c4ccc5ccc6c(-c7c(C)cccc7C)c7cccc8c9ccc%10ccc1c1c%10c9c9c(c78)c6c5c4c9c1c23 [Example 2, 6,14-bis(dimethylphenyl)dibenzo[hi,st]ovalene] | 0.85 | 609 | 283000 | narrow absorption spectrum as well as a narrow emission spectrum | – |
| Cc1cc(C)c(-c2c3cccc4c5ccc6ccc7c(-c8c(C)cc(C)cc8C)c8cccc9c%10ccc%11ccc2c2c%11c%10c%10c(c89)c7c6c5c%10c2c34)c(C)c1 [DBOV-Mes, 6,14-dimesityldibenzo[hi,st]ovalene] | – | – | – | – | stability and brightness under STED beam [4]: very stable and still very bright |
| 3,4,5-Tris(hexaethylene glycol) substituted 6,14-dimesityldibenzo[hi,st]ovalene | – | – | – | – | concentration up to which the compound is non-toxic [5]: ≤ 5 µM; solubility in DMSO [6]: good solubility |
| 6,14-diphenyldibenzo[hi,st]ovalene [Example 7] | – | – | – | narrow absorption spectrum as well as a narrow emission spectrum | – |
